The values below come from patent US20240109917A1 (ACTELION PHARMACEUTICALS LTD, priority 2020, published 2024).

A word on the IC50: it is the concentration at which inhibition is half-maximal.

The target in test [1] is Tb-labeled inactive PDGFRβ (Homo sapiens (Human), UniProt P09619). The test can be described thus: PDGFRβ LanthaScreen Assay. The settings on record: read-out: PDGFR Lantha IC50. Type of test: binding. (In TR-FRET formats the signal depends on donor and acceptor labels being close together.)
Chain of Tb-labeled inactive PDGFRβ (P09619 33-1106): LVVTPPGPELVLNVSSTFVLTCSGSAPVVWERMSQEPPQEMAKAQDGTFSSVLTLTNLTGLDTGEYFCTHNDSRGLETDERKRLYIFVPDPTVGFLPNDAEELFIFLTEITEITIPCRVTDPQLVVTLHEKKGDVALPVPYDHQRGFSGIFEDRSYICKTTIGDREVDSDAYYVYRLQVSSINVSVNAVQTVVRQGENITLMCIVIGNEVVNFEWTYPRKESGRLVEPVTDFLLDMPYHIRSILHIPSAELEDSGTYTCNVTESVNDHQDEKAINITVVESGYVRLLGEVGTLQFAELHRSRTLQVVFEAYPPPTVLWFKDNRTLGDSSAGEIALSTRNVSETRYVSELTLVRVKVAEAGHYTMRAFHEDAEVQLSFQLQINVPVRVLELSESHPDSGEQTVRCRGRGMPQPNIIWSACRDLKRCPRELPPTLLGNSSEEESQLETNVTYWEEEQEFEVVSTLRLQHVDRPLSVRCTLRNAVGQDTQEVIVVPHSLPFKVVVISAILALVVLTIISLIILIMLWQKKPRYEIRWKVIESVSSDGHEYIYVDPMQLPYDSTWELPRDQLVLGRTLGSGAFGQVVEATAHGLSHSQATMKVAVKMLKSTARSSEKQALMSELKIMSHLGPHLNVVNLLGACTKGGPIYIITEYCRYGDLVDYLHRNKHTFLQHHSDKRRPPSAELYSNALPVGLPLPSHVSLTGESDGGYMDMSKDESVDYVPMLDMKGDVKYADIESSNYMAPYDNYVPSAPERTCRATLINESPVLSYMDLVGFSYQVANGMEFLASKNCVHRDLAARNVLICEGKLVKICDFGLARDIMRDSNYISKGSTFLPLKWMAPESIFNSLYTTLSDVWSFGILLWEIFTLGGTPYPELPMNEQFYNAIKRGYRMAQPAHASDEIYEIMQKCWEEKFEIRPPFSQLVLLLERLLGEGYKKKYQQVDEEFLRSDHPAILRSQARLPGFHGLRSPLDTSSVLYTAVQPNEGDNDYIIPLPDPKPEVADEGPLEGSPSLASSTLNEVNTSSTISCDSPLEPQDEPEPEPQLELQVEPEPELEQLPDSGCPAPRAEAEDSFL
The target in test [2] is VEGFR2, unphosphorylated (Homo sapiens (Human), UniProt P35968). The test is described as follows: VEGFR ADP GLO Assay. Type of test: biochemical.
Chain of VEGFR2, unphosphorylated (P35968 20-1356): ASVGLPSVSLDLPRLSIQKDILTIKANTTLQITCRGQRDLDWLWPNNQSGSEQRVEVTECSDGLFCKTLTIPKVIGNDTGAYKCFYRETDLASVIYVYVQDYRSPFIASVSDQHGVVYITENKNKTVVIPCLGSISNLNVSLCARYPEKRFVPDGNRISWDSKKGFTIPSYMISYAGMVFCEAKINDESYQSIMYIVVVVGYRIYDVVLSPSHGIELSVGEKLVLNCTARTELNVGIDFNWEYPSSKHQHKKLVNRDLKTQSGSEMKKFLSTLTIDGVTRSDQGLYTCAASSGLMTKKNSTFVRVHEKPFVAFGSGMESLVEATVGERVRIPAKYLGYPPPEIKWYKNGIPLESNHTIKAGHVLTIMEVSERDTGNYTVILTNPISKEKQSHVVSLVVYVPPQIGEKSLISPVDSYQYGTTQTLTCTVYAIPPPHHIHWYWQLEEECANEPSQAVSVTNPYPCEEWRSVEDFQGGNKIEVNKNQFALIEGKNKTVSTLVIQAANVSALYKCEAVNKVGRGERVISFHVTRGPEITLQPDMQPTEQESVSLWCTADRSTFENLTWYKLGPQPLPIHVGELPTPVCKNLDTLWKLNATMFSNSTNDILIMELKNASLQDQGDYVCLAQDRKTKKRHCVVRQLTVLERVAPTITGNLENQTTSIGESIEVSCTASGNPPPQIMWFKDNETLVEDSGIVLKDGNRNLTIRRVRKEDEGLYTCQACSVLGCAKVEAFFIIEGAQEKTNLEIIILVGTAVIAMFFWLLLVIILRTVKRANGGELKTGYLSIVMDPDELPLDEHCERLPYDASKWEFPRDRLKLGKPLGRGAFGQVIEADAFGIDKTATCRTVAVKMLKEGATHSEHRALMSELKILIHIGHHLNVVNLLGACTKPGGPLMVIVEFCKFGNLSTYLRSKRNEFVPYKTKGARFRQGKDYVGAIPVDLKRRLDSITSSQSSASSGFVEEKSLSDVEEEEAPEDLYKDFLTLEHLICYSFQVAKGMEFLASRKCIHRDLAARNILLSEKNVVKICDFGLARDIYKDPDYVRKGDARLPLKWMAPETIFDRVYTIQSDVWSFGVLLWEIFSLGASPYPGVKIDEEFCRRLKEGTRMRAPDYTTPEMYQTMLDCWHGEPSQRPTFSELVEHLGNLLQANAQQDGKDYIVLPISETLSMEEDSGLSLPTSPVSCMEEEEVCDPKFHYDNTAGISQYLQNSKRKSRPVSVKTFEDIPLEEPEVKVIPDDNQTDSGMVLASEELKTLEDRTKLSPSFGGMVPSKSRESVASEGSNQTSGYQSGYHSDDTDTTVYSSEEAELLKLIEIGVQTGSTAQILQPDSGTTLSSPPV

For the compound `COc1ncccc1-c1cn2ncc(C(=O)Nc3cc(NC(=O)C[C@H]4CCCN4C(C)C)cnc3C)c2s1` [Example 309, (R)—N-(5-(2-(1-isopropylpyrrolidin-2-yl)acetamido)-2-methylpyridin-3-yl)-2-(2-methoxypyridin-3-yl)pyrazolo[5,1-b]thiazole-7-carboxamide], the half-inhibitory concentration (IC50) is 0.0015 µM in test [1] and greater than 7.5 µM in test [2].

For `COc1ncccc1-c1cn2ncc(C(=O)Nc3cc(NC(=O)CN4CCOCC45CCC5)cnc3C)c2s1` [Example 310, N-(5-(2-(8-oxa-5-azaspiro[3.5]nonan-5-yl)acetamido)-2-methylpyridin-3-yl)-2-(2-methoxypyridin-3-yl)pyrazolo[5,1-b]thiazole-7-carboxamide], the values for the IC50 in test [1] and in test [2] were 0.0014 µM and greater than 7.5 µM, respectively.

Regarding `CC[C@H]1CN(CC(=O)Nc2cnc(C)c(NC(=O)c3cnn4cc(-c5cccnc5OC)sc34)c2)CCO1` [Example 311, (S)—N-(5-(2-(2-ethylmorpholino)acetamido)-2-methylpyridin-3-yl)-2-(2-methoxypyridin-3-yl)pyrazolo[5,1-b]thiazole-7-carboxamide], the IC50 is 0.0013 µM in test [1] and greater than 7.5 µM in test [2].

Consider `Cc1ncc(NC(=O)CN2CCCC2)cc1NC(=O)c1cnn2cc(-c3cccnc3O)sc12` [Example 312, 2-(2-hydroxypyridin-3-yl)-N-(2-methyl-5-(2-(pyrrolidin-1-yl)acetamido)pyridin-3-yl)pyrazolo[5,1-b]thiazole-7-carboxamide], for which the results for the half-inhibitory concentration (IC50) in test [1] and in test [2] were 0.0392 µM and greater than 7.5 µM, respectively.

Take `COc1ncccc1-c1cn2ncc(C(=O)Nc3cc(NC(=O)CN4CCCC4)cnc3C)c2s1` [Example 313, 2-(2-methoxypyridin-3-yl)-N-(2-methyl-5-(2-(pyrrolidin-1-yl)acetamido)pyridin-3-yl)pyrazolo[5,1-b]thiazole-7-carboxamide]: the IC50 in test [1] was 0.0026 µM; in test [2] it was greater than 7.5 µM.

Take `Cc1ncc(NC(=O)C2CCCCN2C(C)C)cc1NC(=O)c1cnn2cc(-c3cccnc3O)sc12` (stereo not shown) [Example 314, 2-(2-hydroxypyridin-3-yl)-N-(5-(1-isopropylpiperidine-2-carboxamido)-2-methylpyridin-3-yl)pyrazolo[5,1-b]thiazole-7-carboxamide]: the IC50 in test [1] is 0.0644 µM; in test [2], greater than 7.5 µM.

In the case of `COc1ncccc1-c1cn2ncc(C(=O)Nc3cc(NC(=O)C4CCCCN4C(C)C)cnc3C)c2s1` (stereo not shown) [Example 315, N-(5-(1-isopropylpiperidine-2-carboxamido)-2-methylpyridin-3-yl)-2-(2-methoxypyridin-3-yl)pyrazolo[5,1-b]thiazole-7-carboxamide], the IC50 in test [1] came out at 0.0046 µM; in test [2] it was 4.99 µM.

Consider `Cc1ncc(NC(=O)[C@@H]2C[C@H](C)CN2C)cc1NC(=O)c1cnn2cc(-c3cccnc3O)sc12` [Example 316, N-(5-((2S,4S)-1,4-dimethylpyrrolidine-2-carboxamido)-2-methylpyridin-3-yl)-2-(2-hydroxypyridin-3-yl)pyrazolo[5,1-b]thiazole-7-carboxamide], for which the values for the IC50 in test [1] and in test [2] were 0.0217 µM and greater than 7.5 µM, respectively.

Consider `COc1ncccc1-c1cn2ncc(C(=O)Nc3cc(NC(=O)[C@@H]4C[C@H](C)CN4C)cnc3C)c2s1` [Example 317, N-(5-((2S,4S)-1,4-dimethylpyrrolidine-2-carboxamido)-2-methylpyridin-3-yl)-2-(2-methoxypyridin-3-yl)pyrazolo[5,1-b]thiazole-7-carboxamide], for which the 50% inhibitory concentration (IC50) in test [1] is 0.0025 µM; in test [2], greater than 7.5 µM.

Regarding `COc1ncccc1-c1cn2ncc(C(=O)Nc3cc(NC(=O)CN4CCO[C@H](C)C4)cnc3C)c2s1` [Example 318, (R)-2-(2-methoxypyridin-3-yl)-N-(2-methyl-5-(2-(2-methylmorpholino)acetamido)pyridin-3-yl)pyrazolo[5,1-b]thiazole-7-carboxamide], the IC50 in test [1] is 0.0019 µM; in test [2], greater than 7.5 µM.

`COc1ncccc1-c1cn2ncc(C(=O)Nc3cc(NC(=O)CN4CCOC(C)(C)C4)cnc3C)c2s1` [Example 319, N-(5-(2-(2,2-dimethylmorpholino)acetamido)-2-methylpyridin-3-yl)-2-(2-methoxypyridin-3-yl)pyrazolo[5,1-b]thiazole-7-carboxamide]: the IC50 is 0.0018 µM in test [1] and greater than 7.5 µM in test [2].

On to `COc1ncccc1-c1cn2ncc(C(=O)Nc3cc(NC(=O)CN4CCC5(CCOC5)C4)cnc3C)c2s1` (stereo not shown) [Example 320, N-(5-(2-(2-oxa-7-azaspiro[4.4]nonan-7-yl)acetamido)-2-methylpyridin-3-yl)-2-(2-methoxypyridin-3-yl)pyrazolo[5,1-b]thiazole-7-carboxamide], for which the IC50 in test [1] is 0.0014 µM; in test [2], greater than 7.5 µM.

On to `COc1ncccc1-c1cn2ncc(C(=O)Nc3cc(NC(=O)CN4CCCC5(CC5)C4)cnc3C)c2s1` [Example 321, N-(5-(2-(5-azaspiro[2.5]octan-5-yl)acetamido)-2-methylpyridin-3-yl)-2-(2-methoxypyridin-3-yl)pyrazolo[5,1-b]thiazole-7-carboxamide], for which the IC50 in test [1] is 0.001 µM; in test [2] it was greater than 7.5 µM.

As for `Cc1ncc(NC(=O)C[C@@H]2CCCN2C(C)C)cc1NC(=O)c1cnn2cc(-c3cccnc3O)sc12` [Example 322, (S)-2-(2-hydroxypyridin-3-yl)-N-(5-(2-(1-isopropylpyrrolidin-2-yl)acetamido)-2-methylpyridin-3-yl)pyrazolo[5,1-b]thiazole-7-carboxamide], the IC50 in test [1] was 0.0155 µM; in test [2], greater than 7.5 µM.

`COc1ncccc1-c1cn2ncc(C(=O)Nc3cc(NC(=O)C[C@@H]4CCCN4C(C)C)cnc3C)c2s1` [Example 323, (S)—N-(5-(2-(1-isopropylpyrrolidin-2-yl)acetamido)-2-methylpyridin-3-yl)-2-(2-methoxypyridin-3-yl)pyrazolo[5,1-b]thiazole-7-carboxamide]: the figures for the IC50 in test [1] and in test [2] were 0.0017 µM and greater than 7.5 µM, respectively.

On to `COc1ncccc1-c1cn2ncc(C(=O)Nc3cc(NC(=O)CN4CCC5(CC5)C4)cnc3C)c2s1` [Example 324, N-(5-(2-(5-azaspiro[2.4]heptan-5-yl)acetamido)-2-methylpyridin-3-yl)-2-(2-methoxypyridin-3-yl)pyrazolo[5,1-b]thiazole-7-carboxamide], for which the IC50 is 0.0007 µM in test [1] and 5.24 µM in test [2].

For the compound `COCCn1cc(-c2cn3ncc(C(=O)Nc4cc(NC(=O)CN5CCC[C@@H]5C)cnc4C)c3s2)cn1` [Example 325, (S)-2-(1-(2-methoxyethyl)-1H-pyrazol-4-yl)-N-(2-methyl-5-(2-(2-methylpyrrolidin-1-yl)acetamido)pyridin-3-yl)pyrazolo[5,1-b]thiazole-7-carboxamide], the IC50 in test [1] is 0.0163 µM; in test [2], greater than 7.5 µM.

Consider `COCCn1cc(-c2cn3ncc(C(=O)Nc4cc(NC(=O)CN5CCC6(CC6)C5)cnc4C)c3s2)cn1` [Example 326, N-(5-(2-(5-azaspiro[2.4]heptan-5-yl)acetamido)-2-methylpyridin-3-yl)-2-(1-(2-methoxyethyl)-1H-pyrazol-4-yl)pyrazolo[5,1-b]thiazole-7-carboxamide], for which the values for the IC50 in test [1] and in test [2] were 0.0037 µM and greater than 7.5 µM, respectively.

Consider `COCCn1cc(-c2cn3ncc(C(=O)Nc4cc(NC(=O)CN5CCCC5(C)C)cnc4C)c3s2)cn1` [Example 329, N-(5-(2-(2,2-dimethylpyrrolidin-1-yl)acetamido)-2-methylpyridin-3-yl)-2-(1-(2-methoxyethyl)-1H-pyrazol-4-yl)pyrazolo[5,1-b]thiazole-7-carboxamide], for which the IC50 is 0.0056 µM in test [1] and greater than 7.5 µM in test [2].

Regarding `COCCn1cc(-c2cn3ncc(C(=O)Nc4cc(NC(=O)CN5CCC[C@H]5C)cnc4C)c3s2)cn1` [Example 330, (R)-2-(1-(2-methoxyethyl)-1H-pyrazol-4-yl)-N-(2-methyl-5-(2-(2-methylpyrrolidin-1-yl)acetamido)pyridin-3-yl)pyrazolo[5,1-b]thiazole-7-carboxamide], the results for the IC50 in test [1] and in test [2] were 0.0096 µM and greater than 7.5 µM, respectively.
